Measured values: patent US6835567B1, “PNS cell lines and methods of use therefor” (priority 1998, dated 2004)
“Also recorded” adds a separate entry of the source.

Assays:
[1] = tested on: v-myc oncoprotein; test: Immunocytochemistry for v-myc in […]-C10; type: cell-based, human; details: after 6 days of tetracycline treatment (75±1.3% in proliferative condition)
[2] = tested on: immortalized rat DRG cultures; test: βIII tubulin and NF160 immunolabeling, immortalized rat DRG cultures; type: cell-based; details: for βIII-tubulin positive cells: 10 ng/mL in combination with NGF, rat serum and retinoic acid, rat tail collagen substrate
[3] = tested on: differentiated immortalized rat DRG cells; test: Whole-cell patch clamp, ATP current in rat DRG cells; type: cell-based; details: for desensitization of elicited currents: 100 μM, 5-second applications, differentiated 3-4 weeks
[4] = tested on: differentiated HDRGVIII-C10 cells; test: Whole-cell patch clamp, ATP current in […]-C10; type: cell-based, human; details: 10 μM; differentiated 1-2 weeks
[5] = tested on: HDRGVIII-C10.6 cells; test: Whole-cell patch clamp characterization of […]-C10.6; type: cell-based, human; details: for I Purinergic (αβmeATP): 100 μM; for I Capsaicin: 1 μM
[6] = biological target: T1, capsaicin receptors (Homo sapiens, UniProt Q8NER1); test: Cobalt histology for capsaicin sensitivity, […]-C11; type: cell-based
T1 construct: endogenous in cells
T1 sequence (Q8NER1 whole entry): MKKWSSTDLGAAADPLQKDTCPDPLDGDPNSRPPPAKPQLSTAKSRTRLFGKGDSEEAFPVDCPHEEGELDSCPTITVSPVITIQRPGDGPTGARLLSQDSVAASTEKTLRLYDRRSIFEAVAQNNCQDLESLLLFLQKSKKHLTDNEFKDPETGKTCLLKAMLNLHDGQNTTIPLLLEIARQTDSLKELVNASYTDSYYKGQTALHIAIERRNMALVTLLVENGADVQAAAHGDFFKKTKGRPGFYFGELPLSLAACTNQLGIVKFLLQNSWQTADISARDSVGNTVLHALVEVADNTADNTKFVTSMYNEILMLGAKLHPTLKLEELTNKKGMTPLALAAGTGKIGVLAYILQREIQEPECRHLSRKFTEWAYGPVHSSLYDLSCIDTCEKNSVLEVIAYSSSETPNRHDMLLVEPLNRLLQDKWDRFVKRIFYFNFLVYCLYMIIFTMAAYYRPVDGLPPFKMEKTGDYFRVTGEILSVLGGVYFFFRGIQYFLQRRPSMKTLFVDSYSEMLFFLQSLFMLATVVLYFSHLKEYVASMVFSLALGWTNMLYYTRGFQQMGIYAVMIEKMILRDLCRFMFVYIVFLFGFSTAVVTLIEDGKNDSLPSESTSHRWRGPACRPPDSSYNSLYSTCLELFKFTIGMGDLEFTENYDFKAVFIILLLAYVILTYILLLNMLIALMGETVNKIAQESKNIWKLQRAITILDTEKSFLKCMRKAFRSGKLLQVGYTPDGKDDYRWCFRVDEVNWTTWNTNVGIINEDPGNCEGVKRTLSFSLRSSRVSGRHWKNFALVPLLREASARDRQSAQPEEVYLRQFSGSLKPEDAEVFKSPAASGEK
Description: (§1) In certain aspects of the present invention, conditionally-immortalized PNS progenitor cell lines may be used in a variety of in vitro assays and screens. In one such aspect, the cell lines may be used in in vitro assays for agents that inhibit the capsaicin response. Briefly, a clonal neuronal cell line may be differentiated under conditions in which capsaicin responsiveness can be assessed with a cobalt histological method. Capsaicin can be added to the culture in the presence or absence of a candidate agent, and cobalt uptake evaluated. Agents that block cobalt staining may act as capsaicin receptor antagonists.

[7] = biological target: T1, capsaicin receptors; test: Whole-cell patch clamp, capsaicin current in […]-C10; type: cell-based
[8] = tested on: HDRGVIII-C10 cells; test: NF160 immunolabeling after differentiation of […]-C10; type: cell-based; details: 10 days with tetracycline, human serum, GDNF, CNTF, NGF plus forskolin (10 μM) or retinoic acid (0.5 μM)
Description: Neuronal differentiation. […] After differentiation, phase-bright cells extending long fasciculating processes were present.

[9] = tested on: conditionally-immortalized rat neural crest stem cells; test: βIII tubulin immunolabeling, immortalized rat neural crest stem cells; type: cell-based; details: with tetracycline, 5 days; LIF 100 ng/ml; EFN = EGF 100 ng/ml, FGF-2 4 ng/ml, NGF 2.0 ng/ml
[10] = biological target: T1, capsaicin receptors; test: Cobalt histology for capsaicin sensitivity, […]-C10.6; type: cell-based; details: 10 μM capsaicin; differentiated 7 days with T, HS, Fsk, G, C, N plus NT-3
Description: as §1

[11] = tested on: differentiated immortalized rat DRG cells; test: Whole-cell patch clamp, capsaicin current in rat DRG cells; type: cell-based; details: differentiated rat DRG cells (n=6)
[12] = tested on: HDRGVIII-C11 cells; test: βIII-tubulin-positive neurons after differentiation of […]-C11; type: cell-based, human
[13] = tested on: HDRGVIII-C10.6 cells; test: Peripherin immunolabeling after differentiation of […]-C10.6; type: cell-based, human; details: T, HS, Fsk, G, C, N, plus NT-3 (25 ng/ml), 5 days (31±9% without NT-3)

Molecule: CN(C)[C@@H]1C(O)=C(C(N)=O)C(=O)[C@@]2(O)C(O)=C3C(=O)c4c(O)cccc4[C@@](C)(O)[C@H]3C[C@@H]12 [tetracycline]
- percentage of v-myc positive cells [1]: 1.1±0.8%
- βIII tubulin positive neurons ([2]; tetracycline alone): ~2.5%

Molecule: Nc1ncnc2c1ncn2[C@@H]1O[C@H](COP(=O)(O)CP(=O)(O)OP(=O)(O)O)[C@@H](O)[C@H]1O [αβ-meATP, αβ-methylene-ATP]
- desensitization of elicited currents [3]: ~15%
- cells with αβ-meATP responses ([3]; differentiated rat DRG cells): 1 of 20
- currents elicited [4]: Rapidly activating and strongly desensitizing currents
- I Purinergic (αβmeATP) ([5]; Proliferative, held at -80 mV): 29 ± 15 pA
- I Purinergic (αβmeATP) ([5]; THSFskGCN, 8 days): 3 ± 3 pA
- I Purinergic (αβmeATP) ([5]; THSFskGCN, 11 days): 226 ± 80 pA

Molecule: Oc1cc2c(cc1O)CN(C(=S)NCCc1ccc(Cl)cc1)CCC2 [capsazepine]
- effect on capsaicin (10 μM)-induced cobalt labeling ([6]; 100 μM capsazepine): reduced substantially
- effect on response to 1 μM capsaicin ([7]; 20 μM capsazepine): blocked; also recorded: inhibited

Molecule: IL-1β: interleukin-1β
- βIII-tubulin positive cells [2]: 33%

Molecule: NC1=N[C@H](O)[C@H]2[C@H]3O[C@]4(O)O[C@@H]([C@@H](O)[C@@]2(N1)[C@@H]4O)[C@]3(O)CO [TTX, tetrodotoxin]
- sensitivity of voltage-gated sodium currents [5]: TTX-sensitive

Molecule: C=C[C@@]1(C)CC(=O)[C@]2(O)[C@@]3(C)[C@@H](O)CCC(C)(C)[C@@H]3[C@H](O)[C@H](OC(C)=O)[C@@]2(C)O1 [forskolin]
- cells with NF160 staining [8]: 15±2.2%

Molecule: LIF: leukemia inhibitory factor
- βIII tubulin positive cells [9]: 28.4%

Molecule: Nc1ncnc2c1ncn2[C@@H]1O[C@H](COP(=O)(O)OP(=O)(O)OP(=O)(O)O)[C@@H](O)[C@H]1O [ATP]
- desensitization of elicited currents [3]: ~15%
- cells with ATP-activated current ([3]; after 1 week of differentiation (n=14)): no cells
- cells with ATP-activated current ([3]; after 3 weeks of differentiation): ~30%

Molecule: CC1=C(/C=C/C(C)=C/C=C/C(C)=C/C(=O)O)C(C)(C)CCC1 [retinoic acid]
- cells with NF160 staining [8]: 8.1%

Molecule: COc1cc(CNC(=O)CCCC/C=C/C(C)C)ccc1O [capsaicin]
- cells with neuronal morphology exhibiting cobalt uptake [10]: 30.8±2.9%
- cells with neuronal morphology sensitive to capsaicin (cobalt precipitate) ([6]; 10 μM or 100 μM, differentiated with T, HS, Fsk, G, C, N plus NT-3): Approximately 30%
- I Capsaicin ([5]; Proliferative, held at -80 mV): 0 pA
- I Capsaicin ([5]; THSFskGCN, 8 days): 114 ± 14 pA
- I Capsaicin ([5]; THSFskGCN, 11 days): 217 ± 36 pA
- response to capsaicin [11]: did not exhibit responses
- response to capsaicin ([7]; 1 μM, differentiated cells with neuronal morphology): exhibited responses
- response to capsaicin ([7]; prior to differentiation): no immortalized human PNS HDRGVIII-C10 cells exhibited responses

B1: IL-11: interleukin IL-11, differentiating factor (protein, UniProt P20809 22-199, looked up)
Interleukin-11: PGPPPGPPRVSPDPRAELDSTVLLTRSLLADTRQLAAQLRDKFPADGDHNLDSLPTLAMSAGALGALQLPGVLTRLRADLLSYLRHVQWLRRAGGSSLKTLEPELGTLQARLDRLLRRLQLLMSRLALPQPPPDPPAPPLAPPSSAWGGIRAAHAILGGLHLTLDWAVRGLLLLKTRL
- βIII-tubulin-positive neurons ([12]; differentiated with T, HS, Fsk, NGF plus IL-11): 1.5±0.9%
- βIII-tubulin positive cells [2]: 34%

B2: NT-3: neurotrophin-3 (protein, UniProt P20783 139-257, looked up)
Neurotrophin-3: YAEHKSHRGEYSVCDSESLWVTDKSSAIDIRGHQVTVLGEIKTGNSPVKQYFYETRCKEARPVKNGCRGIDDKHWNSQCKTSQTYVRALTSENNKLVGWRWIRIDTSCVCALSRKIGRT
- cells differentiated into βIII-tubulin-positive neurons ([12]; NT-3 added to standard differentiating medium (1.4±0.6% without NT-3)): 4.0±2.2%
- cells expressing peripherin [13]: 43±8%
- βIII tubulin positive cells expressing NF160 ([2]; NT-3 added to medium containing NGF plus LIF or CNTF (less than 25% in absence of NT-3)): ≥ 65%
